# Test results published in US11629171B2, “Beta-hairpin peptidomimetics” (POLYPHOR AG, priority 2017, dated 2023).
# Where a SMILES comes first, the peptide text is derived from it. Bridges are numbered along the chain shown (N, C = ends). Roman numbers before positions name the chains, in order. [ ]: non-standard residue; d: D form. Pen = CC(C)(S)[C@H](N)C(=O)O; Hiv = CC(C)[C@H](O)C(=O)O; dDab = NCC[C@@H](N)C(=O)O; hSer = N[C@@H](CCO)C(=O)O; Dab = NCC[C@H](N)C(=O)O; Abu = CC[C@H](N)C(=O)O; Dap = NC[C@H](N)C(=O)O
# Key:
# [1] = system: male ICR mice; test: Tolerability in a mouse model (Maximum Tolerated Dose assay); type: in vivo; settings: 2 × 40 mg/kg s.c. at a 12-hr interval, groups of 3
# How it was run: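 Peptides in 0.9% NaCl (pH 6.5-7.6) given s.c. at 30 or 40 mg/kg, twice 12 h apart, to groups of 3 male ICR mice (23±3 g). Acute toxic signs (mortality, convulsions, tremors, sedation) and autonomic effects (diarrhea, salivation, piloerection) observed for 30 min after each dose.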
# [2] = system: Acinetobacter baumannii 872842; type: cell-based; settings: 872842
# How it was run: (§1)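 CLSI broth microdilution: inoculum ~10^6 CFU/mL in cation-adjusted Mueller-Hinton II broth, with peptide in serial two-fold dilutions plus Polysorbate 80 (0.002% final). MIC (μg/mL) is the lowest concentration without visible growth after 18-20 hours at 35° C.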
# [3] = system: Pseudomonas aeruginosa ATCC 27853; type: cell-based; settings: ATCC 27853
# How it was run: as §1
# [4] = system: Enterobacter cloacae 848840; type: cell-based; settings: 848840
# How it was run: as §1
# [5] = system: Escherichia coli ATCC 25922; type: cell-based; settings: ATCC 25922
# How it was run: as §1
# [6] = system: Acinetobacter baumannii DSM 30008; type: cell-based; settings: DSM 30008
# How it was run: as §1
# [7] = system: Klebsiella pneumoniae SSI #3010; type: cell-based; settings: SSI #3010
# How it was run: as §1
# [8] = system: Escherichia coli 926415; type: cell-based; settings: 926415
# How it was run: as §1
# [9] = system: Klebsiella pneumoniae 968733; type: cell-based; settings: 968733
# How it was run: as §1
# [10] = system: human red blood cells (hRBC); test: Hemolysis; type: cell-based; settings: red cells of human, 1 h, 200
# How it was run: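 Read-out is supernatant absorbance at 540 nm, normalised to full lysis by 2% Triton X-100 and zero lysis by PBS with 10% water. Peptides (200 μg/mL) were exposed to 20% v/v washed human erythrocytes at 37° C for 1 h under shaking.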
Structure (SMILES),Mortality and dose [1],MIC [2],Pseudomonas aeruginosa ATCC 27853 MIC [3],MIC [4],Escherichia coli ATCC 25922 MIC [5],Acinetobacter baumannii DSM 30008 MIC [6],Klebsiella pneumoniae SSI #3010 MIC [7],MIC [8],MIC [9],Hemolysis at 200 μg/mL [10]
CC(=O)N[C@H](C(=O)N[C@H]1CSSC[C@@H](C(=O)N[C@@H](CO)C(N)=O)NC(=O)[C@H](C(C)C)NC(=O)[C@H](CO)NC(=O)[C@H](Cc2c[nH]c3ccccc23)NC(=O)[C@H](CO)NC(=O)CNC(=O)[C@H](CCC(=O)N[C@@H](CCN)C(=O)N[C@H](C(=O)N[C@@H](CN)C(=O)N[C@H]2CCNC(=O)[C@H]([C@@H](C)O)NC(=O)[C@H](CCN)NC(=O)[C@H](CCN)NC(=O)[C@H](CC(C)C)NC(=O)[C@@H](CC(C)C)NC(=O)[C@H](CCN)NC2=O)[C@@H](C)O)NC(=O)[C@H](CCN)NC(=O)[C@H](Cc2ccc(O)cc2)NC1=O)C(C)C [Ex. 337] (I: Ac-VCY[Dab]EGSWSVCS-NH2 / II: [Dab]T[Dap][Dab][Dab][dL]L[Dab][Dab]T; disulfide I:2-I:11; amide I:5-II:N; lactam II:4-II:C),0/3 died at 2 × 40 mg/kg,0.25 µg/mL,0.25 µg/mL,0.25 µg/mL,0.0625 µg/mL,0.125 µg/mL,0.125 µg/mL,1 µg/mL,2 µg/mL,2%
CC[C@@H]1NC(=O)[C@@H](CC(C)C)NC(=O)[C@H](CCN)NC(=O)[C@@H](NC(=O)[C@H](CN)NC(=O)[C@@H](NC(=O)[C@H](CCN)NC(=O)CC[C@@H]2NC(=O)[C@H](CCN)NC(=O)[C@H](Cc3ccc(O)cc3)NC(=O)[C@@H](NC(=O)[C@@H](NC(C)=O)C(C)C)CSSC[C@@H](C(=O)N[C@@H](CO)C(N)=O)NC(=O)[C@H]([C@@H](C)CC)NC(=O)[C@H](CO)NC(=O)[C@H](Cc3c[nH]c4ccccc34)NC(=O)[C@H](CO)NC(=O)[C@@H](CCN)NC2=O)[C@@H](C)O)CCNC(=O)[C@H]([C@@H](C)O)NC(=O)[C@H](CCN)NC(=O)[C@H](CCN)NC1=O [Ex. 338] (I: Ac-VCY[Dab]E[dDab]SWSICS-NH2 / II: [Dab]T[Dap][Dab][Dab][dL][Abu][Dab][Dab]T; disulfide I:2-I:11; amide I:5-II:N; lactam II:4-II:C),0/3 died at 2 × 40 mg/kg,0.0625 µg/mL,0.125 µg/mL,0.0625 µg/mL,0.03125 µg/mL,0.03125 µg/mL,0.03125 µg/mL,0.0625 µg/mL,0.125 µg/mL,<1%
CC[C@@H]1NC(=O)[C@H](CO)NC(=O)[C@H](Cc2c[nH]c3ccccc23)NC(=O)[C@H](CO)NC(=O)[C@@H](CCN)NC(=O)[C@H](CCC(=O)N[C@@H](CCN)C(=O)N[C@H](C(=O)N[C@@H](CN)C(=O)N[C@H]2CCNC(=O)[C@H]([C@@H](C)O)NC(=O)[C@H](CCN)NC(=O)[C@H](CCN)NC(=O)[C@H](CC)NC(=O)[C@@H](CC(C)C)NC(=O)[C@H](CCN)NC2=O)[C@@H](C)O)NC(=O)[C@H](CCN)NC(=O)[C@H](Cc2ccc(O)cc2)NC(=O)[C@@H](NC(=O)[C@@H](NC(C)=O)C(C)C)CSSC[C@@H](C(=O)N[C@@H](CO)C(N)=O)NC1=O [Ex. 339] (I: Ac-VCY[Dab]E[dDab]SWS[Abu]CS-NH2 / II: [Dab]T[Dap][Dab][Dab][dL][Abu][Dab][Dab]T; disulfide I:2-I:11; amide I:5-II:N; lactam II:4-II:C),0/3 died at 2 × 40 mg/kg,0.125 µg/mL,0.125 µg/mL,0.125 µg/mL,0.0625 µg/mL,0.0625 µg/mL,0.0625 µg/mL,0.5 µg/mL,0.5 µg/mL,<1%
CC(C)C[C@@H]1NC(=O)[C@@H](CC(C)C)NC(=O)[C@H](CCN)NC(=O)[C@@H](NC(=O)[C@H](CN)NC(=O)[C@@H](NC(=O)[C@H](CCN)NC(=O)CC[C@@H]2NC(=O)[C@H](CCN)NC(=O)[C@H](Cc3ccc(O)cc3)NC(=O)[C@@H](NC(=O)[C@@H](O)C(C)C)C(C)(C)SSC[C@@H](C(=O)N[C@@H](CO)C(N)=O)NC(=O)[C@H](C(C)C)NC(=O)[C@H](CO)NC(=O)[C@H](Cc3c[nH]c4ccccc34)NC(=O)[C@H](CO)NC(=O)[C@@H](CCN)NC2=O)[C@@H](C)O)CCNC(=O)[C@H]([C@@H](C)O)NC(=O)[C@H](CCN)NC(=O)[C@H](CCN)NC1=O [Ex. 340] (I: H-[Hiv][Pen]Y[Dab]E[dDab]SWSVCS-NH2 / II: [Dab]T[Dap][Dab][Dab][dL]L[Dab][Dab]T; disulfide I:2-I:11; amide I:5-II:N; lactam II:4-II:C),0/3 died at 2 × 40 mg/kg,0.0625 µg/mL,0.25 µg/mL,0.125 µg/mL,0.03125 µg/mL,0.0625 µg/mL,0.0625 µg/mL,0.125 µg/mL,0.25 µg/mL,<1%
"CC(=O)N[C@H](C(=O)N[C@H]1CCNC(=O)C[C@@H](C(=O)N[C@@H](CO)C(N)=O)NC(=O)[C@H](C(C)C)NC(=O)[C@H](CO)NC(=O)[C@H](Cc2c[nH]c3ccccc23)NC(=O)[C@H](CO)NC(=O)[C@@H](CCN)NC(=O)[C@H](CCC(=O)N[C@@H](CCN)C(=O)N[C@H](C(=O)N[C@@H](CN)C(=O)N[C@H]2CCNC(=O)[C@H]([C@@H](C)O)NC(=O)[C@H](CCN)NC(=O)[C@H](CCN)NC(=O)[C@H](CC(C)C)NC(=O)[C@@H](CC(C)C)NC(=O)[C@H](CCN)NC2=O)[C@@H](C)O)NC(=O)[C@H](CCN)NC(=O)[C@H](Cc2ccc(O)cc2)NC1=O)C(C)C [Ex. 341] (I: Ac-V[Dab]Y[Dab]E[dDab]SWSVDS-NH2 / II: [Dab]T[Dap][Dab][Dab][dL]L[Dab][Dab]T; lactam I:2-I:11, II:4-II:C; amide I:5-II:N)",0/3 died at 2 × 40 mg/kg,0.25 µg/mL,0.125 µg/mL,2 µg/mL,0.0625 µg/mL,0.0625 µg/mL,0.0625 µg/mL,0.5 µg/mL,1 µg/mL,<1%
CC(=O)N[C@H](C(=O)N[C@H]1CSSC[C@@H](C(=O)N[C@@H](CO)C(N)=O)NC(=O)[C@H](C(C)C)NC(=O)[C@H](CO)NC(=O)[C@H](Cc2c[nH]c3ccccc23)NC(=O)[C@H](CCO)NC(=O)[C@@H](CCN)NC(=O)[C@H](CCC(=O)N[C@@H](CCN)C(=O)N[C@H](C(=O)N[C@@H](CN)C(=O)N[C@H]2CCNC(=O)[C@H]([C@@H](C)O)NC(=O)[C@H](CCN)NC(=O)[C@H](CCN)NC(=O)[C@H]([C@@H](C)O)NC(=O)[C@@H](CC(C)C)NC(=O)[C@H](CCN)NC2=O)[C@@H](C)O)NC(=O)[C@H](CCN)NC(=O)[C@H](Cc2ccc(O)cc2)NC1=O)C(C)C [Ex. 343] (I: Ac-VCY[Dab]E[dDab][hSer]WSVCS-NH2 / II: [Dab]T[Dap][Dab][Dab][dL]T[Dab][Dab]T; disulfide I:2-I:11; amide I:5-II:N; lactam II:4-II:C),0/3 died at 2 × 40 mg/kg,0.25 µg/mL,0.125 µg/mL,0.125 µg/mL,0.03125 µg/mL,0.0625 µg/mL,0.0625 µg/mL,0.25 µg/mL,0.5 µg/mL,<1%
CC(C)C[C@@H]1NC(=O)[C@@H](CC(C)C)NC(=O)[C@H](CCN)NC(=O)[C@@H](NC(=O)[C@H](CN)NC(=O)[C@@H](NC(=O)[C@H](CCN)NC(=O)CC[C@@H]2NC(=O)[C@H](CCN)NC(=O)[C@H](Cc3ccc(O)cc3)NC(=O)[C@@H](NC(=O)[C@@H](O)C(C)C)CSSC[C@@H](C(=O)N[C@H](CO)C(N)=O)NC(=O)[C@H](C(C)C)NC(=O)[C@H](CO)NC(=O)[C@H](Cc3c[nH]c4ccccc34)NC(=O)[C@H](CO)NC(=O)[C@@H](CCN)NC2=O)[C@@H](C)O)CCNC(=O)[C@H]([C@@H](C)O)NC(=O)[C@H](CCN)NC(=O)[C@H](CCN)NC1=O [Ex. 344] (I: H-[Hiv]CY[Dab]E[dDab]SWSVC[dS]-NH2 / II: [Dab]T[Dap][Dab][Dab][dL]L[Dab][Dab]T; disulfide I:2-I:11; amide I:5-II:N; lactam II:4-II:C),0/3 died at 2 × 40 mg/kg,0.25 µg/mL,0.125 µg/mL,1 µg/mL,0.0625 µg/mL,0.125 µg/mL,0.0625 µg/mL,0.125 µg/mL,0.25 µg/mL,<1%
